Test results as given in publication PMC11576293, “New series of 4,6-diaryl pyrimidines: facile synthesis and antiproliferative activity as dual EGFR/VEGFR-2 inhibitors” (Frontiers in Chemistry, 2024).

Experiments:
Test in all cases: NCI-60 single-dose screen
Format in all cases: cell-based
[1] = system: 786-0; settings: Homo sapiens, single dose 10 µM, '-' = no inhibition, read-out: % Growth Inhibition
In short: (§1)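 The NCI Developmental Therapeutics Program exposed each of 60 cancer cell lines, drawn from leukemia, lung, colon, CNS, melanoma, ovarian, renal, prostate and breast origins, to one concentration of compound (10 μM).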

[2] = system: A498; settings: Homo sapiens, single dose 10 µM, '-' = no inhibition, read-out: % Growth Inhibition
In short: as §1

[3] = system: A549/ATCC; settings: Homo sapiens, single dose 10 µM, '-' = no inhibition, read-out: % Growth Inhibition
In short: as §1

[4] = system: ACHN 1; settings: Homo sapiens, single dose 10 µM, '-' = no inhibition, read-out: % Growth Inhibition
In short: as §1

[5] = system: BT-549; settings: Homo sapiens, single dose 10 µM, '-' = no inhibition, read-out: % Growth Inhibition
In short: as §1

[6] = system: CCRF-CEM; settings: Homo sapiens, single dose 10 µM, '-' = no inhibition, read-out: % Growth Inhibition
In short: as §1

[7] = system: COLO 205; settings: Homo sapiens, single dose 10 µM, '-' = no inhibition, read-out: % Growth Inhibition
In short: as §1

[8] = system: EKVX; settings: Homo sapiens, single dose 10 µM, '-' = no inhibition, read-out: % Growth Inhibition
In short: as §1

[9] = system: HCC-2998; settings: Homo sapiens, single dose 10 µM, '-' = no inhibition, read-out: % Growth Inhibition
In short: as §1

[10] = system: HCT-15; settings: Homo sapiens, single dose 10 µM, '-' = no inhibition, read-out: % Growth Inhibition
In short: as §1

[11] = system: HL-60(TB); settings: Homo sapiens, single dose 10 µM, '-' = no inhibition, read-out: % Growth Inhibition
[12] = system: HOP-62; settings: Homo sapiens, single dose 10 µM, '-' = no inhibition, read-out: % Growth Inhibition
In short: as §1

[13] = system: HT29; settings: Homo sapiens, HT-29, single dose 10 µM, '-' = no inhibition, read-out: % Growth Inhibition
In short: as §1

[14] = system: IGROV1; settings: Homo sapiens, IGROV-1, single dose 10 µM, '-' = no inhibition, read-out: % Growth Inhibition
In short: as §1

[15] = system: K-562; settings: Homo sapiens, K562, single dose 10 µM, '-' = no inhibition, read-out: % Growth Inhibition
In short: as §1

[16] = system: LOX IMVI; settings: Homo sapiens, single dose 10 µM, '-' = no inhibition, read-out: % Growth Inhibition
In short: as §1

[17] = system: M14; settings: Homo sapiens, single dose 10 µM, '-' = no inhibition, read-out: % Growth Inhibition
In short: as §1

[18] = system: MALME-3M; settings: Homo sapiens, single dose 10 µM, '-' = no inhibition, read-out: % Growth Inhibition
In short: as §1

[19] = system: MCF7; settings: Homo sapiens, single dose 10 µM, '-' = no inhibition, read-out: % Growth Inhibition
In short: as §1

[20] = system: MDA-MB-468; settings: Homo sapiens, single dose 10 µM, '-' = no inhibition, read-out: % Growth Inhibition
In short: as §1

[21] = system: MDA-MB231/ATCC; settings: Homo sapiens, MDA-MB-231, single dose 10 µM, '-' = no inhibition, read-out: % Growth Inhibition
In short: as §1

[22] = system: NCI-H23; settings: Homo sapiens, single dose 10 µM, '-' = no inhibition, read-out: % Growth Inhibition
In short: as §1

[23] = system: NCI-H322M; settings: Homo sapiens, single dose 10 µM, '-' = no inhibition, read-out: % Growth Inhibition
In short: as §1

[24] = system: NCI-H460; settings: Homo sapiens, single dose 10 µM, '-' = no inhibition, read-out: % Growth Inhibition
In short: as §1

[25] = system: NCI-H522; settings: Homo sapiens, single dose 10 µM, '-' = no inhibition, read-out: % Growth Inhibition
In short: as §1

[26] = system: NCI/ADR-RES; settings: Homo sapiens, single dose 10 µM, '-' = no inhibition, read-out: % Growth Inhibition
In short: as §1

[27] = system: OVCAR-4; settings: Homo sapiens, single dose 10 µM, '-' = no inhibition, read-out: % Growth Inhibition
In short: as §1

[28] = system: OVCAR-5; settings: Homo sapiens, single dose 10 µM, '-' = no inhibition, read-out: % Growth Inhibition
In short: as §1

[29] = system: OVCAR-8; settings: Homo sapiens, single dose 10 µM, '-' = no inhibition, read-out: % Growth Inhibition
In short: as §1

[30] = system: PC-3; settings: Homo sapiens, single dose 10 µM, '-' = no inhibition, read-out: % Growth Inhibition
In short: as §1

[31] = system: RPMI-8226; settings: Homo sapiens, single dose 10 µM, '-' = no inhibition, read-out: % Growth Inhibition
In short: as §1

[32] = system: RXF 393; settings: Homo sapiens, single dose 10 µM, '-' = no inhibition, read-out: % Growth Inhibition
In short: as §1

[33] = system: SF-539; settings: Homo sapiens, single dose 10 µM, '-' = no inhibition, read-out: % Growth Inhibition
In short: as §1

[34] = system: SK-MEL-28; settings: Homo sapiens, single dose 10 µM, '-' = no inhibition, read-out: % Growth Inhibition
In short: as §1

[35] = system: SK-MEL-2; settings: Homo sapiens, single dose 10 µM, '-' = no inhibition, read-out: % Growth Inhibition
In short: as §1

[36] = system: SK-MEL-5; settings: Homo sapiens, single dose 10 µM, '-' = no inhibition, read-out: % Growth Inhibition
In short: as §1

[37] = system: SK-OV-3; settings: Homo sapiens, single dose 10 µM, '-' = no inhibition, read-out: % Growth Inhibition
In short: as §1

[38] = system: SNB-19; settings: Homo sapiens, single dose 10 µM, '-' = no inhibition, read-out: % Growth Inhibition
In short: as §1

[39] = system: SNB-75; settings: Homo sapiens, single dose 10 µM, '-' = no inhibition, read-out: % Growth Inhibition
In short: as §1

[40] = system: SR; settings: Homo sapiens, single dose 10 µM, '-' = no inhibition, read-out: % Growth Inhibition
In short: as §1

[41] = system: T-47D; settings: Homo sapiens, T47D, single dose 10 µM, '-' = no inhibition, read-out: % Growth Inhibition
In short: as §1

[42] = system: TK-10; settings: Homo sapiens, single dose 10 µM, '-' = no inhibition, read-out: % Growth Inhibition
In short: as §1

[43] = system: U251; settings: Homo sapiens, U-251, single dose 10 µM, '-' = no inhibition, read-out: % Growth Inhibition
In short: as §1

[44] = system: UACC-257; settings: Homo sapiens, single dose 10 µM, '-' = no inhibition, read-out: % Growth Inhibition
In short: as §1

[45] = system: UACC-62; settings: Homo sapiens, single dose 10 µM, '-' = no inhibition, read-out: % Growth Inhibition
In short: as §1

[46] = system: UO-31; settings: Homo sapiens, single dose 10 µM, '-' = no inhibition, read-out: % Growth Inhibition
In short: as §1

CCSc1nc(-c2ccc(Cl)cc2)cc(-c2ccc(OC)cc2)n1 [Compound 10, 4-(4-Chlorophenyl)-2-(ethylthio)-6-(4-methoxyphenyl)pyrimidine]
inhibition at 10 µM [1]: 3.07%
inhibition at 10 µM [2]: 3.38%
inhibition at 10 µM [3]: 11.2%
inhibition at 10 µM [4]: 2.57%
inhibition at 10 µM [5]: < 0%
inhibition at 10 µM [6]: < 0%
inhibition at 10 µM [7]: < 0%
inhibition at 10 µM [8]: 7.83%
inhibition at 10 µM [9]: < 0%
inhibition at 10 µM [10]: 14.4%
inhibition at 10 µM [11]: 6.15%
inhibition at 10 µM [12]: < 0%
inhibition at 10 µM [13]: 9.13%
inhibition at 10 µM [14]: < 0%
inhibition at 10 µM [15]: 11.5%
inhibition at 10 µM [16]: < 0%
inhibition at 10 µM [17]: < 0%
inhibition at 10 µM [18]: < 0%
inhibition at 10 µM [19]: 25.5%
inhibition at 10 µM [20]: < 0%
inhibition at 10 µM [21]: < 0%
inhibition at 10 µM [22]: 0.32%
inhibition at 10 µM [23]: < 0%
inhibition at 10 µM [24]: < 0%
inhibition at 10 µM [25]: 8.82%
inhibition at 10 µM [26]: 1.42%
inhibition at 10 µM [27]: 12.9%
inhibition at 10 µM [28]: < 0%
inhibition at 10 µM [29]: < 0%
inhibition at 10 µM [30]: < 0%
inhibition at 10 µM [31]: 6.56%
inhibition at 10 µM [32]: < 0%
inhibition at 10 µM [33]: < 0%
inhibition at 10 µM [34]: < 0%
inhibition at 10 µM [35]: 6.03%
inhibition at 10 µM [36]: 3.36%
inhibition at 10 µM [37]: < 0%
inhibition at 10 µM [38]: 0.21%
inhibition at 10 µM [39]: 3%
inhibition at 10 µM [40]: 19.4%
inhibition at 10 µM [41]: 18.6%
inhibition at 10 µM [42]: 0.94%
inhibition at 10 µM [43]: 4.88%
inhibition at 10 µM [44]: < 0%
inhibition at 10 µM [45]: < 0%
inhibition at 10 µM [46]: 10.5%
